Test results: patent publication US20210380547A1, “UREA DERIVATIVES FOR TREATING AND/OR PREVENTING CANCER” (CENTRE NATIONAL DE LA RECHERCHE SCIENTIFIQUE, priority 2018, published 2021)

Columns and labels:
SKM1 = experiment: XTT cell viability assay, SKM1; format: cell-based, human; conditions: Homo sapiens, SKM-1; XTT assay (48 h); standard deviation of 10%; read-out: EC50 (μM) MDS SKM1
Description: (§1) Fifty microliters of sodium 3′-[1-phenylaminocarbonyl)-3,4-tetrazolium]-bis(4-methoxy-6-nitro) benzene sulfonic acid hydrate (XTT) reagent was added to each well. The assay is based on the cleavage of the yellow tetrazolium salt XTT to form an orange formazan dye by metabolically active cells. The absorbance of the formazan product, reflecting cell viability, was measured at 490 nm. Each assay was performed in quadruplicate.
(§2) Compounds #1-#14 have been assayed as potential anti-proliferative agents against a panel of human breast head and neck, and kidney tumor cells and hematological malignancies, selected on the basis of their aggressiveness (e.g. incurable triple-negative breast cancer cells: MDA-MB-231; kidney ccRCC cells: RCC4, A498 and 786-O and 786R; head and neck cancer cells: CAL33, CAL33RR, CAL27, and CAL27RR; acute myeloid cell lines: OCI-AML2, OCI-AML3, MolM13, and MolM14; myelodysplastic cell line: SM1; and chronic myeloid cell line: CML). All these cell lines share as common denominator the expression of CXCR1 and CXCR2. The EC50 values have been measured by a XTT colorimetric assay, and compared to those of SB-225002, used as a reference; the results are listed in Table 1.

786-O = experiment: XTT cell viability assay, 786-O; format: cell-based, human; conditions: Homo sapiens, 786-0; XTT assay (48 h); standard deviation of 10%; read-out: EC50 (μM) Kidney 786-O
Description: (§3) A, B: Naive (786-O, A), and sunitinib-resistant (786-R, B) 786-O cells, were treated with compound #1 or sunitinib (1 to 10 μM) for 48 hr. Cell viability was measured by XTT assays;
(§4) D, E: 786-O (D), 786-R (E), were treated with 2.5 μM compound #1 or 2.5 μM sunitinib for 24 h to 96 h. The cells metabolism was measured by XTT assay;
as §1, §2

MDA-MB-231 = experiment: XTT cell viability assay, MDA-MB-231; format: cell-based; conditions: Homo sapiens, XTT assay (48 h), standard deviation of 10%, read-out: EC50 (μM) Breast MDA-MB-231
Description: as §1, §2

K562 = experiment: XTT cell viability assay, K562; format: cell-based, human; conditions: Homo sapiens, K562; XTT assay (48 h); standard deviation of 10%; read-out: EC50 (μM) CML K562
Description: as §1, §2

[1] = tested on: macular degeneration model; experiment: Macular degeneration model, clinical angiography; format: in vivo, mice; conditions: Day 14, intraperitoneal 400 μg 3 times a week
Description: FIG. 9: Evaluation of compounds #1 and #3 on macular degeneration. Clinical angiography at Day 14: Evaluation of the intensity of the lesion by a score from 0 to 3 (0: no leak; 1: light intensity; 2: moderate intensity; 3: immense marking) on mice treated with compounds #1 and #3. The intensities of the lesions were reported, each point corresponding to a lesion. Three lesions were performed on the eyes of each mouse; […]. • 4 groups of 12 mice were induced on the eyes by laser burnt as follows: • G1: vehicle; • G2 and G3: Compounds #1 and #3: intraperitoneal injection of 400 μg of product 3 times a week; and • G4: dexamethasone (2 mg/kg/day) orally. Clinical angiography at Day 14 on the 12 animals: evaluation of the intensity of the lesion by a score of 0 to 3 (0 no leak, 1=light intensity, 2=moderate intensity, 3=intense marking).

MolM14 = experiment: XTT cell viability assay, MolM14; format: cell-based, human; conditions: Homo sapiens, MOLM-14; XTT assay (48 h); standard deviation of 10%; read-out: EC50 (μM) AML MolM14
Description: as §1, §2

RCC4 = experiment: XTT cell viability assay, RCC4; format: cell-based; conditions: Homo sapiens, XTT assay (48 h), standard deviation of 10%, read-out: EC50 (μM) Kidney RCC4
Description: as §1, §2

A498 = experiment: XTT cell viability assay, A498; format: cell-based, human; conditions: Homo sapiens, A498; XTT assay (48 h); standard deviation of 10%; read-out: EC50 (μM) Kidney A498
Description: as §1, §2

OCI-AML2 = experiment: XTT cell viability assay, OCI-AML2; format: cell-based, human; conditions: Homo sapiens, OCI-AML2; XTT assay (48 h); standard deviation of 10%; read-out: EC50 (μM) AML OCI-AML2
Description: as §1, §2

OCI-AML3 = experiment: XTT cell viability assay, OCI-AML3; format: cell-based, human; conditions: Homo sapiens, OCI-AML-3; XTT assay (48 h); standard deviation of 10%
Description: as §1, §2

MolM13 = experiment: XTT cell viability assay, MolM13; format: cell-based, human; conditions: Homo sapiens, MOLM-13; XTT assay (48 h); standard deviation of 10%; read-out: EC50 (μM) AML MolM13
Description: as §1, §2

[2] = tested on: CXCL7-dependent HuVEC migration; experiment: Boyden chamber migration assay, CXCL7-dependent; format: cell-based; conditions: CXCL7 (50 ng/ml)
Description: CXCL7 or VEGFA-stimulated chemotaxis assays were monitored using modified Boyden chambers containing polycarbonate membranes (8-μm pores, Transwell; Corning, Sigma). Cells were seeded on the upper side of the filters and chambers were placed on 24-well plates containing CXCL7 (50 ng/ml) or VEGFA (50 ng/ml). Cells were allowed to migrate for 24 hr at 37° C. in 5% CO2. Migratory cells on the lower membrane surface were fixed in 3% paraformaldehyde, stained with 0.1% crystal violet.

[3] = tested on: healthy human fibroblasts (FHN); experiment: FACS analysis of cell death markers (AV, PI), healthy fibroblasts; format: cell-based; conditions: 5 μM, 48 h
Description: (§5) FIG. 1: Observation by FACS analyses of early (Annexin AV) and late (Propidium Iodide, PI) apoptosis markers expressed by healthy and malignant cells after treatment with compounds #1 and #2 at 5 μM. CT: negative control.
(§6) Apoptosis analysis: After stimulation, cells were washed with ice-cold PBS and were stained with the annexin-V-fluos staining kit (Roche, Meylan, France) according to the manufacturer's procedure. Fluorescence was measured by using the FL2 (AV) and FL3 (propidium iodide, PI) channels of a fluorescence-activated cell sorter apparatus (Calibur cytometer).
(§7) To complete these XTT assays, malignant (ccRCC and hematological) and healthy (human fibroblasts FHN) cells have been grown with compounds #1 or #2, and after 48h the expression of cell death markers (AV and PI) has been quantified by FACS analyses (FIG. 1).

786R = experiment: XTT cell viability assay, 786R (sunitinib-resistant); format: cell-based, human; conditions: Homo sapiens, 48 h, XTT assay (48 h); sunitinib-resistant; standard deviation of 10%; read-out: EC50 (μM) Kidney 786R
Description: as §3, §4, §1, §2

[4] = tested on: malignant (ccRCC and hematological) cells; experiment: FACS analysis of cell death markers (AV, PI), malignant cells; format: cell-based, human; conditions: 5 μM, 48 h
Description: as §5, §6, §7

Row | Structure (SMILES) | EC50 (SKM1) | EC50 (786-O) | EC50 (MDA-MB-231) | EC50 (K562) | intensity of the lesion (score 0 to 3), clinical angiography [1] | EC50 (MolM14) | EC50 (RCC4) | EC50 (A498) | EC50 (OCI-AML2) | EC50 (OCI-AML3) | EC50 (MolM13) | reduction of HuVEC CXCL7-dependent motility (comparison) [2] | apoptosis of healthy human fibroblasts (FHN) [3] | EC50 (786R) | early (AV) and late (PI) apoptosis markers on malignant cells [4]
1 | CCOc1ccc2nc(NC(=O)Nc3ccccc3C)sc2c1 [Compound #3, 1-(6-ethoxybenzo[d]thiazol-2-yl)-3-(o-tolyl)urea] | 15 µM | 15 µM | 12 µM | 4 µM | significant effect | 10 µM | > 25 µM | 15 µM | 15 µM | 7 µM | 15 µM | – | – | – | –
2 | Cc1c(F)cccc1NC(=O)Nc1ccc(Cl)c(S(=O)(=O)[C@H]2CCCNC2)c1O [danirixin, reference compound] | – | – | – | – | – | – | – | – | – | – | – | less efficient than compound #1 | – | – | –
3 | O=C(Nc1nc2ccc([N+](=O)[O-])cc2s1)Nc1ccccc1Cl [Compound #2, 1-(2-chlorophenyl)-3-(6-nitrobenzo[d]thiazol-2-yl)urea] | 10 µM | 5 µM | 8 µM | 7 µM | – | 10 µM | 7 µM | 5 µM | 10 µM | 10 µM | 5 µM | – | no increased apoptosis over the control experiment | 8 µM | cytotoxic effect on malignant cells
